The source of these data is patent US20030147850A1 (priority 2002, published 2003).

In experiment [1] the test system is vesicular stomatitis virus (VSV).
The test system of experiment [2] is erythroleukemia tumor cells. The arrangement: species or system C57BL male mice. The settings on record: mouse, in vivo.
Another experiment concerns P388 tumor cells. Details: species or system DBA/BALB(F1) male mice. The settings on record: mouse, in vivo, ip, 5 mg/kg.

Consider Disodium succinate hexahydrate, for which the “protection of cells against virus-induced cytopathology” value in experiment [1] was “no effect”. As for “Recombinant human interferon-alpha2b [IFN]”, the Tumor mass in experiment [2] is 354 ± 16 mg; in the experiment with P388 tumor cells, 4800 ± 500 mg.
